ChEMBL document CHEMBL1201862, “PubChem BioAssay data set” (2004)
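Cultured in 96-well plates, cells were exposed to test compound for 48 hours across five concentrations. GI50 is the concentration that inhibits growth by half.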 Calls of active or inactive are those of the source. Cut-off read from the data, not from the text of the source: active = GI50 up to about 1.1 µM and inactive = higher.

Assays:
Test in all cases: DTP human tumour cell line panel, 48 h
786-0 = system: 786-0
A498 = system: A498
A549 = system: A549
ACHN = system: ACHN
CAKI-1 = system: CAKI-1
CCRF-CEM = system: CCRF-CEM
COLO 205 = system: COLO 205
DU-145 = system: DU-145
EKVX = system: EKVX
HCC 2998 = system: HCC 2998
HCT-116 = system: HCT-116
HCT-15 = system: HCT-15
HL-60 = system: HL-60
HOP-62 = system: HOP-62
HT-29 = system: HT-29
Hs-578T = system: Hs-578T
IGROV-1 = system: IGROV-1
K562 = system: K562
KM12 = system: KM12
LOX IMVI = system: LOX IMVI
M14 = system: M14
MCF7 = system: MCF7
MDA-MB-231 = system: MDA-MB-231
MDA-MB-435 = system: MDA-MB-435
MDA-N = system: MDA-N
MOLT-4 = system: MOLT-4
Malme-3M = system: Malme-3M
NCI-H226 = system: NCI-H226
NCI-H23 = system: NCI-H23
NCI-H460 = system: NCI-H460
NCI-H522 = system: NCI-H522
NCI/ADR-RES = system: NCI/ADR-RES
OVCAR-3 = system: OVCAR-3
OVCAR-4 = system: OVCAR-4
OVCAR-8 = system: OVCAR-8
PC-3 = system: PC-3
RPMI-8226 = system: RPMI-8226
RXF 393 = system: RXF 393
SF-268 = system: SF-268
SF-295 = system: SF-295
SF-539 = system: SF-539
SK-MEL-28 = system: SK-MEL-28
SK-MEL-2 = system: SK-MEL-2
SK-MEL-5 = system: SK-MEL-5
SK-OV-3 = system: SK-OV-3
SN12C = system: SN12C
SNB-19 = system: SNB-19
SNB-75 = system: SNB-75
SR = system: SR
SW-620 = system: SW-620
T47D = system: T47D
TK-10 = system: TK-10
U-251 = system: U-251
UACC-257 = system: UACC-257
UACC-62 = system: UACC-62
UO-31 = system: UO-31
OVCAR-5 = system: OVCAR-5

CC1=CC(=O)C(C(O)(C(F)(F)F)C(F)(F)F)C(C)(C)C1 (configuration not stated)
GI50 (786-0): > 10 µM (inactive) | GI50 (A498): > 10 µM (inactive) | GI50 (A549): > 10 µM (inactive) | GI50 (ACHN): > 10 µM (inactive) | GI50 (CAKI-1): > 10 µM (inactive) | GI50 (CCRF-CEM): > 10 µM (inactive) | GI50 (COLO 205): > 10 µM (inactive) | GI50 (DU-145): > 10 µM (inactive) | GI50 (EKVX): > 10 µM (inactive) | GI50 (HCC 2998): > 10 µM (inactive) | GI50 (HCT-116): > 10 µM (inactive) | GI50 (HCT-15): > 10 µM | GI50 (HL-60): > 10 µM (inactive) | GI50 (HOP-62): > 10 µM (inactive) | GI50 (HT-29): > 10 µM (inactive) | GI50 (Hs-578T): > 10 µM (inactive) | GI50 (IGROV-1): > 10 µM (inactive) | GI50 (K562): > 10 µM (inactive) | GI50 (KM12): > 10 µM (inactive) | GI50 (LOX IMVI): > 10 µM (inactive) | GI50 (M14): > 10 µM (inactive) | GI50 (MCF7): > 10 µM (inactive) | GI50 (MDA-MB-231): > 10 µM (inactive) | GI50 (MDA-MB-435): > 10 µM (inactive) | GI50 (MDA-N): > 10 µM (inactive) | GI50 (MOLT-4): > 10 µM (inactive) | GI50 (Malme-3M): > 10 µM (inactive) | GI50 (NCI-H226): > 10 µM (inactive) | GI50 (NCI-H23): > 10 µM (inactive) | GI50 (NCI-H460): > 10 µM (inactive) | GI50 (NCI-H522): > 10 µM (inactive) | GI50 (NCI/ADR-RES): > 10 µM (inactive) | GI50 (OVCAR-3): > 10 µM (inactive) | GI50 (OVCAR-4): > 10 µM (inactive) | GI50 (OVCAR-8): > 10 µM (inactive) | GI50 (PC-3): > 10 µM (inactive) | GI50 (RPMI-8226): > 10 µM (inactive) | GI50 (RXF 393): > 10 µM (inactive) | GI50 (SF-268): > 10 µM (inactive) | GI50 (SF-295): > 10 µM (inactive) | GI50 (SF-539): > 10 µM (inactive) | GI50 (SK-MEL-28): > 10 µM (inactive) | GI50 (SK-MEL-2): > 10 µM (inactive) | GI50 (SK-MEL-5): > 10 µM (inactive) | GI50 (SK-OV-3): > 10 µM (inactive) | GI50 (SN12C): > 10 µM (inactive) | GI50 (SNB-19): > 10 µM (inactive) | GI50 (SNB-75): > 10 µM (inactive) | GI50 (SR): > 10 µM (inactive) | GI50 (SW-620): > 10 µM (inactive) | GI50 (T47D): > 10 µM (inactive) | GI50 (TK-10): > 10 µM (inactive) | GI50 (U-251): > 10 µM (inactive) | GI50 (UACC-257): > 10 µM (inactive) | GI50 (UACC-62): > 10 µM (inactive) | GI50 (UO-31): > 10 µM (inactive)

O=[N+]([O-])/C(C(Cl)=C(Cl)Cl)=C1/OCCS1
GI50 (786-0): 23 µM (inactive) | GI50 (A498): 20.3 µM (inactive) | GI50 (A549): 23.3 µM (inactive) | GI50 (ACHN): 20.4 µM (inactive) | GI50 (CAKI-1): 29.6 µM (inactive) | GI50 (CCRF-CEM): 15.9 µM (inactive) | GI50 (COLO 205): 19.8 µM (inactive) | GI50 (DU-145): 42.2 µM (inactive) | GI50 (EKVX): 32.1 µM (inactive) | GI50 (HCC 2998): 37.9 µM (inactive) | GI50 (HCT-116): 18 µM (inactive) | GI50 (HCT-15): 21.3 µM | GI50 (HL-60): 16.9 µM (inactive) | GI50 (HOP-62): 20.8 µM (inactive) | GI50 (HT-29): 27.5 µM (inactive) | GI50 (Hs-578T): 39.7 µM (inactive) | GI50 (IGROV-1): 24.4 µM (inactive) | GI50 (K562): 30 µM (inactive) | GI50 (KM12): 31.9 µM (inactive) | GI50 (LOX IMVI): 21.4 µM (inactive) | GI50 (M14): 46.7 µM (inactive) | GI50 (MCF7): 61.4 µM (inactive) | GI50 (MDA-MB-231): 17.5 µM (inactive) | GI50 (MDA-MB-435): 22.6 µM (inactive) | GI50 (MDA-N): 41.6 µM (inactive) | GI50 (MOLT-4): 17.9 µM (inactive) | GI50 (Malme-3M): 17.7 µM (inactive) | GI50 (NCI-H226): 30.2 µM (inactive) | GI50 (NCI-H23): 23.4 µM (inactive) | GI50 (NCI-H460): 27 µM (inactive) | GI50 (NCI-H522): 32.4 µM (inactive) | GI50 (NCI/ADR-RES): 17.1 µM (inactive) | GI50 (OVCAR-3): 14.4 µM (inactive) | GI50 (OVCAR-4): 30.4 µM (inactive) | GI50 (OVCAR-5): 32.4 µM (inactive) | GI50 (OVCAR-8): 16.8 µM (inactive) | GI50 (PC-3): 35.9 µM (inactive) | GI50 (RPMI-8226): 22.9 µM (inactive) | GI50 (RXF 393): 19.3 µM (inactive) | GI50 (SF-268): 25.5 µM (inactive) | GI50 (SF-295): 33.9 µM (inactive) | GI50 (SF-539): 21.3 µM (inactive) | GI50 (SK-MEL-28): 31.8 µM (inactive) | GI50 (SK-MEL-2): 27.7 µM (inactive) | GI50 (SK-MEL-5): 19.1 µM (inactive) | GI50 (SK-OV-3): 48.6 µM (inactive) | GI50 (SN12C): 23 µM (inactive) | GI50 (SNB-19): 50.4 µM (inactive) | GI50 (SNB-75): 13.9 µM (inactive) | GI50 (SR): 30.1 µM (inactive) | GI50 (T47D): 37.2 µM (inactive) | GI50 (TK-10): 25.9 µM (inactive) | GI50 (U-251): 36 µM (inactive) | GI50 (UACC-257): 27.7 µM (inactive) | GI50 (UACC-62): 25.5 µM (inactive) | GI50 (UO-31): 23.1 µM (inactive)
